# Laboratory results published in patent US20220378706A1, “PHARMACEUTICAL COMPOSITION COMPRISING PDE9 INHIBITOR” (Eisai R&D Management Co., Ltd., priority 2017, published 2022).
# “And” between values parts separate entries of the source, which are not always exact repeats. Equal values may be shown once. Read-outs that look alike come from different tables or passages of the source.
# Assay: Single dose clinical study: plasma Compound A pharmacokinetics
# Type: in vivo, human
# Details: for AUC(0-inf) / Cmax / Vd/F / half-life / Tmax / AUC(0-t): human, po; for AUC(0-inf): read-out: AUC(0-inf) GM; for Tmax: read-out: tmax Median; for tlag Median (Min, Max): Part B 100 mg cohort
# Experimental: This was a single center, single dose, randomized, double blind, placebo controlled study in healthy subjects. It consisted of 4 parts: Parts A, B, C, and D. Each of the four study parts had 2 phases: Prerandomization Phase and Randomization Phase. The Prerandomization Phase lasted up to 30 days and consisted of a Screening Period and a Baseline Period, during which each subject's study eligibility was determined and baseline assessments were performed.
# In Part A, there were 8 sequential cohorts of healthy adult subjects (18-50 years of age). Subjects were randomly assigned to Compound A or placebo in a ratio of 6:2, respectively. Subjects in the Compound A cohorts were treated with single ascending doses of 10, 25, 50, 100, 200, 400, 800, or 1200 mg.
# In Part B, there were 4 cohorts of healthy adult subjects (18-50 years of age). There were 8 subjects in Cohort 1, with 6 subjects randomly assigned to receive single doses of Compound A (400 mg) and 2 subjects randomly assigned to receive placebo. There were 7 subjects in Cohort 2 and Cohort 3, each with 6 subjects randomly assigned to receive single doses of Compound A (100 and 200 mg, respectively) and 1 subject randomly assigned to receive placebo. The dose of 100 mg selected in Cohort 2 was based on preliminary analysis of Cohort 1 data; this dose was predicted from PK/PD modeling to achieve a sustained CSF cGMP increase from baseline of approximately 200% when administered to steady state, and thereby provided a potentially therapeutic dose for further evaluation in future studies. There were 7 subjects in Cohort 4, with 6 subjects randomly assigned to receive a single dose of Compound A (50 mg [n=3] or 75 mg [n=3]) and 1 subject randomly assigned to receive placebo. The doses for Cohorts 3 and 4 were selected based on PK/PD modeling of the data in Cohorts 1 and 2.
# Subjects in Cohort 2 who had received Compound A 100 mg or placebo under fasted conditions (1st Treatment Period) also participated in an evaluation of food effect on the PK of Compound A (2nd Treatment Period). After a washout period of at least 13 days (or 5 half-lives of Compound A, whichever was longer), subjects were admitted to the clinic for baseline assessments (2nd Baseline Period) and then received a single dose of the same treatment (Compound A 100 mg or placebo) after consuming a high fat and high calorie meal over 30 minutes. Blood PK samples were collected at prespecified time points. Safety evaluations were also assessed. CSF was not collected for PD evaluation during the 2nd Treatment Period. A Follow Up Visit occurred on Day 10 of Treatment Period 2.
# In Part C, there was 1 cohort of 8 healthy elderly subjects (65 to 85 years of age) randomly assigned to receive a single dose of Compound A 100 mg or placebo in a ratio of 6:2, respectively.
# In Part D, 3 cohorts of healthy adult Japanese subjects were randomized in parallel. There were 7 subjects in each cohort and subjects were randomly assigned to receive single doses of Compound A (25, 100, or 400 mg) or placebo in a ratio of 6:1, respectively.
# Blood samples for determination of plasma Compound A concentrations were collected from predose to 216 hours postdose. On Day 1, blood PK samples were collected at predose and postdose 0.5 (30 minutes), 1, 1.5, 2, 3, 4, 5, 6, 8, 12, and 18 hours. Thereafter, samples were collected on Day 2 (24 and 36 hours postdose), Day 3 (48 hours postdose), Day 4 (72 hours postdose), Day 5 (96 hours postdose), Day 6 (120 hours postdose), Day 7 (144 hours postdose), and Day 10 (216 hours postdose).
# Blood samples for determination of plasma Compound A concentrations were collected from predose to 216 hours postdose. For all cohorts, blood PK samples were collected on Day 1 at predose and postdose at 0.5 (30 minutes), 1, 1.5, 2, 3, 4, 5, 6, 8, 10, 12, and 18 hours. […]
# [1] = plasma, 400 mg, plasma, Non-Japanese Subjects (Parts A,B), single oral 400 mg
# [2] = plasma, 400 mg, plasma, healthy adults (Parts A,B), single oral 400 mg, fasted
# [3] = plasma, 800 mg, plasma, healthy adults (Parts A,B), single oral 800 mg, fasted
# [4] = plasma, 1200 mg, plasma, healthy adults (Parts A,B), single oral 1200 mg, fasted
# [5] = plasma, healthy adults (Parts A,B), single oral 10 mg, fasted
# [6] = plasma, healthy adults (Parts A,B), single oral 25 mg, fasted
# [7] = plasma, healthy adults (Parts A,B), single oral 50 mg, fasted
# [8] = plasma, healthy adults (Parts A,B), single oral 75 mg, fasted
# [9] = plasma, healthy adults (Parts A,B), single oral 100 mg, fasted
# [10] = plasma, healthy adults (Parts A,B), single oral 200 mg, fasted
# [11] = plasma, healthy adults (Parts A,B), single oral 400 mg, fasted
# [12] = plasma, healthy adults (Parts A,B), single oral 800 mg, fasted
# [13] = plasma, healthy adults (Parts A,B), single oral 1200 mg, fasted
smiles,measurement,setting,value
"COc1ncc(C)c(-c2ccc3c(c2)[nH]c(=O)c2cnn([C@H]4CCOC4)c23)c1C [Compound A, (S)-7-(2-methoxy-3,5-dimethylpyridin-4-yl)-1-(tetrahydrofuran-3-yl)-1H-pyrazolo[4,3-c]quin olin-4(5H)-one]",AUC(0-inf),[1],35800 ng·h/mL
same,Cmax,"plasma, 400 mg, plasma, Non-Japanese Subjects (Parts A,B), single oral 400 mg, read-out: Cmax GM (% CV)",827 ng/mL
same,Vd/F,"plasma, 400 mg, plasma, Non-Japanese Subjects (Parts A,B), single oral 400 mg, read-out: Vz/F GM (% CV)",511 L
same,half-life,"plasma, 400 mg, plasma, Non-Japanese Subjects (Parts A,B), single oral 400 mg, read-out: t1/2 Mean (SD) (converted)",34.5 h
same,Tmax,[1],3 h
same,AUC(0-t),"plasma, 400 mg, plasma, healthy adults (Parts A,B), single oral 400 mg, fasted, read-out: AUC(0-24 h) GM",12500 ng·h/mL
same,AUC(0-t),"plasma, 400 mg, plasma, healthy adults (Parts A,B), single oral 400 mg, fasted, read-out: AUC(0-30 h) GM",15200 ng·h/mL
same,AUC(0-t),"plasma, 400 mg, plasma, healthy adults (Parts A,B), single oral 400 mg, fasted, read-out: AUC(0-72 h) GM",27000 ng·h/mL
same,AUC(0-inf),[2],36300 ng·h/mL
same,AUC(0-t),"plasma, 400 mg, plasma, healthy adults (Parts A,B), single oral 400 mg, fasted, read-out: AUC(0-t) GM",35500 ng·h/mL
same,Cmax,"plasma, 400 mg, plasma, healthy adults (Parts A,B), single oral 400 mg, fasted, read-out: Cmax GM",880 ng/mL
same,Vd/F,"plasma, 400 mg, plasma, healthy adults (Parts A,B), single oral 400 mg, fasted, read-out: Vz/F GM",493 L
same,half-life,"plasma, 400 mg, plasma, healthy adults (Parts A,B), single oral 400 mg, fasted, read-out: t1/2 Mean (converted)",33.2 h
same,Tmax,[2],2.5 h
same,AUC(0-t),"plasma, 800 mg, plasma, healthy adults (Parts A,B), single oral 800 mg, fasted, read-out: AUC(0-24 h) GM",29200 ng·h/mL
same,AUC(0-t),"plasma, 800 mg, plasma, healthy adults (Parts A,B), single oral 800 mg, fasted, read-out: AUC(0-30 h) GM",34500 ng·h/mL
same,AUC(0-t),"plasma, 800 mg, plasma, healthy adults (Parts A,B), single oral 800 mg, fasted, read-out: AUC(0-72 h) GM",54700 ng·h/mL
same,AUC(0-inf),[3],65000 ng·h/mL
same,AUC(0-t),"plasma, 800 mg, plasma, healthy adults (Parts A,B), single oral 800 mg, fasted, read-out: AUC(0-t) GM",64300 ng·h/mL
same,Cmax,"plasma, 800 mg, plasma, healthy adults (Parts A,B), single oral 800 mg, fasted, read-out: Cmax GM",2570 ng/mL
same,Vd/F,"plasma, 800 mg, plasma, healthy adults (Parts A,B), single oral 800 mg, fasted, read-out: Vz/F GM",438 L
same,half-life,"plasma, 800 mg, plasma, healthy adults (Parts A,B), single oral 800 mg, fasted, read-out: t1/2 Mean (converted)",25.2 h
same,Tmax,[3],3.55 h
same,AUC(0-t),"plasma, 1200 mg, plasma, healthy adults (Parts A,B), single oral 1200 mg, fasted, read-out: AUC(0-24 h) GM",28500 ng·h/mL
same,AUC(0-t),"plasma, 1200 mg, plasma, healthy adults (Parts A,B), single oral 1200 mg, fasted, read-out: AUC(0-30 h) GM",34800 ng·h/mL
same,AUC(0-t),"plasma, 1200 mg, plasma, healthy adults (Parts A,B), single oral 1200 mg, fasted, read-out: AUC(0-72 h) GM",60600 ng·h/mL
same,AUC(0-inf),[4],79700 ng·h/mL
same,AUC(0-t),"plasma, 1200 mg, plasma, healthy adults (Parts A,B), single oral 1200 mg, fasted, read-out: AUC(0-t) GM",78400 ng·h/mL
same,Cmax,"plasma, 1200 mg, plasma, healthy adults (Parts A,B), single oral 1200 mg, fasted, read-out: Cmax GM",1780 ng/mL
same,Vd/F,"plasma, 1200 mg, plasma, healthy adults (Parts A,B), single oral 1200 mg, fasted, read-out: Vz/F GM",666 L
same,half-life,"plasma, 1200 mg, plasma, healthy adults (Parts A,B), single oral 1200 mg, fasted, read-out: t1/2 Mean (converted)",31.9 h
same,Tmax,[4],3.02 h
same,"tlag Median (Min, Max)","plasma, single oral 100 mg, Fasted","0 (0.00, 0.00) h"
same,"tlag Median (Min, Max)","plasma, single oral 100 mg, Fed (high-fat meal)","0.49 (0.00, 0.88) h"
same,CL/F GM,[5],5.41 L/h
same,tlag Median,[5],0.50 h
same,CL/F GM,[6],5.76 L/h
same,tlag Median,[6],0.00 h
same,CL/F GM,[7],6.33 L/h
same,tlag Median,[7],0.00 h
same,CL/F GM,[8],7.57 L/h
same,tlag Median,[8],0.00 h
same,AUC(0-inf) GM,[9],15000 (20.0) h × ng/mL
same,CL/F GM,[9],6.66 L/h and 6.66 (20.1) L/h
same,Cmax GM,[9],373 (19.8) ng/mL
same,t1/2 Mean,[9],28.6 (6.73) h
same,tlag Median,[9],0.00 h
same,CL/F GM,[10],8.93 L/h
same,tlag Median,[10],0.00 h
same,CL/F GM,[11],11.0 L/h
same,tlag Median,[11],0.00 h
same,CL/F GM,[12],12.3 L/h
same,tlag Median,[12],0.00 h
same,CL/F GM,[13],15.1 L/h
same,tlag Median,[13],0.00 h
same,time to quantifiable plasma concentrations postdose (most subjects),single doses of 10 to 1200 mg,≤ 0.5 h
